Experiments:
α4β1 = biological target: T1, α4β1 (Homo sapiens, UniProt P05556+P13612); assay: LIBS induction on Jurkat cells with antibody 9EG7 (FACS); assay type: cell-based; settings: 2 mM Mg+2 buffer, read-out: EC50 of LIBS epitope induction
T1 construct: endogenous in cells; host or cells: Jurkat (human T cell line)
Procedure: Jurkat cells (2×10^5/well) were preincubated at 37° C. for 20 minutes with TRIS-buffered saline containing 2 mM MgCl2 (Mg^+2-TBS) alone or with serial dilutions of test compounds. The samples were transferred to an ice bath and supplemented with LIBS antibody, 9EG7, at a final concentration of 10 μg/ml. The cells were washed twice with Mg^+2-TBS and resuspended in a 1:200 dilution of a FITC conjugated-goat anti-rat IgG in Mg^+2-TBS and incubated for 30 min at 4° C. The cells were washed twice and resuspended in Mg^+2-TBS. Mean fluorescence intensity (MFI) was determined by FACS analysis (Becton Dickinson FACScan). Results are expressed as MFI. Data were analyzed by Microsoft Excel v5.0 and Deltagraph v4.0 software.

[1] = test system: sRBC-induced DTH model in mice; assay: sRBC-induced delayed type hypersensitivity, footpad swelling; assay type: in vivo; settings: 20 mg/kg enterally
Procedure: Specific pathogen-free female Balb/c mice, aged 8-10 weeks, from Jackson Labs were used for all experiments. The animals were fed food and water ad libitum. Sheep red blood cells (sRBC) in Alsever's solution from the same sheep were obtained weekly from Charles River Pharm. Services (Southbridge, Mass.). The sRBC were pelleted by centrifugation at 1000 g for 10 minutes at 4° C. and any visible buffy coat removed. The cells were then washed in saline. The cell pellet was resuspended in saline and counted using a hemocytometer. The cells were diluted in phosphate buffered saline (PBS) to 2×10^8 sRBC per mL. On Day 0, mice were sensitized by a s.c. injection of 2×10^7 sRBC in 100 μL PBS. On Day 5, sRBC were prepared as above, but diluted in PBS to a final concentration of 4×10^9 sRBC per ml. Of this preparation, 25 μL was injected s.c. into the right rear footpad.
For enteral administration of compound, oMePUPA-V (Lot #2770-029) was formulated in a vehicle of 60% PEG 400 in 0.02M TRIS to a stock concentration of 5 mg/mL. […]
Swelling of unchallenged control (left) and challenged (right) rear footpads was measured using a tension caliper from Mitutoyo (Model #304-196, Dyer, Lancaster, Pa.) at 20 hours post-footpad challenge. The data are presented as the change in footpad thickness, determined by subtracting the left hind paw thickness from the right hind paw thickness. […]

T1 sequence (P13612 34-1032): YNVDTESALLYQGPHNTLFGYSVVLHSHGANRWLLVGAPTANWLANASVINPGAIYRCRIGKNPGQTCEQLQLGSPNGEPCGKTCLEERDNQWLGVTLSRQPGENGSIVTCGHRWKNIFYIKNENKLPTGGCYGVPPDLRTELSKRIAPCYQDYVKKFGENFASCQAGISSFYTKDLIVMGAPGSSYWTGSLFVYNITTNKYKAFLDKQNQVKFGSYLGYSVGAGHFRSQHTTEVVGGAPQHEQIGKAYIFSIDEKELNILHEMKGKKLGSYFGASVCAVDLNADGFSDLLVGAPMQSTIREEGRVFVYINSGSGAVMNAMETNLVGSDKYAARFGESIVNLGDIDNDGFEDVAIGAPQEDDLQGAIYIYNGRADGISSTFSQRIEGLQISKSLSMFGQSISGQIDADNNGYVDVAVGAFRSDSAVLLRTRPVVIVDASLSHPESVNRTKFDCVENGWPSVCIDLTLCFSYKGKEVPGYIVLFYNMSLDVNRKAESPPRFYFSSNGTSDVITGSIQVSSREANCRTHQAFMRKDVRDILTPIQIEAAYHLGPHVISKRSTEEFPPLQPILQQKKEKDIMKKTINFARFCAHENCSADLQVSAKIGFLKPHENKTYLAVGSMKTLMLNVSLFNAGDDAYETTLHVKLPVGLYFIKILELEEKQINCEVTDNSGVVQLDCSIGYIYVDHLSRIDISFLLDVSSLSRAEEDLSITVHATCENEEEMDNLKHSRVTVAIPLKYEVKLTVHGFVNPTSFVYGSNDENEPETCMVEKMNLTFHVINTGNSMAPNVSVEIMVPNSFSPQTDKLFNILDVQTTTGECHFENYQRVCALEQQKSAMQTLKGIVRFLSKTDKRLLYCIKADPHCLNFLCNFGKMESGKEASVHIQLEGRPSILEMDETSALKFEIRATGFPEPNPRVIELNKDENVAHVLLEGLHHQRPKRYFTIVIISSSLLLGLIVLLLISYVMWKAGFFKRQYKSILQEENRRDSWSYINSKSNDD
T1 sequence (P05556 21-798): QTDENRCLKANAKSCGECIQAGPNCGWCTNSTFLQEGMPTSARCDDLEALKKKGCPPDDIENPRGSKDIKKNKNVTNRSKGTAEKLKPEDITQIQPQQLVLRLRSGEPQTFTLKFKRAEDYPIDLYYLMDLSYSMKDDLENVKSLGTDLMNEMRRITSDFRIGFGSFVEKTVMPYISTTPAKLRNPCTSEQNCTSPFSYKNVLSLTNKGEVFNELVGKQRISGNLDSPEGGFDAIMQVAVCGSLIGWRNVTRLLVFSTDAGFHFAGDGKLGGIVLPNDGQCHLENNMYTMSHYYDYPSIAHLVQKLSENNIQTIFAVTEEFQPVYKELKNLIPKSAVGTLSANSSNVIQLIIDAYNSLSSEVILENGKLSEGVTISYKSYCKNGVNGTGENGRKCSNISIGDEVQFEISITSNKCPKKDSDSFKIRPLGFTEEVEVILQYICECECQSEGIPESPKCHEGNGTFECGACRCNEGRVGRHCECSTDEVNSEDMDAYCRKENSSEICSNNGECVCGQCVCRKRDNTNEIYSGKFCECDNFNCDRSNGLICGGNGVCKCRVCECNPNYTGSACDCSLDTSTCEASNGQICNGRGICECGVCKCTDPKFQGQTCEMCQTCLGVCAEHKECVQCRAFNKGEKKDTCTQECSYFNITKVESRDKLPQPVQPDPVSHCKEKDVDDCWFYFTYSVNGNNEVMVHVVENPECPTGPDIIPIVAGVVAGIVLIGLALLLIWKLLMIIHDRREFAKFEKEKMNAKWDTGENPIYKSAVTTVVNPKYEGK

With `Cc1ccccc1NC(=O)Nc1ccc(CC(=O)N2CCC[C@H]2C(=O)N[C@H](C)CC(=O)O)cc1` [oMePUPA-V] the EC50 (α4β1) was roughly 20 nM and the “effect on footpad swelling (in words)” value [1] was “without effect”.
